Reference: patent US20090099231A1, “3-Sulfonylamino-Pyrrolidine-2-One Derivatives as Factor Xa Inhibitors” (priority 2005, published 2009)
Where a name gives a salt, the structure may show the parent alone.

Columns and labels:
[1] = system: human plasma; assay: Measurement of Prothrombin Time (PT), time to clot formation in plasma; settings: pooled plasma from 4 donors, test compound 0.03 to 100 uM, Thromboplastin C Plus
Description: Blood was collected into a sodium citrate solution (ratio 9:1) to give a final concentration of 0.38% citrate. Plasma was generated by centrifugation of citrated blood samples at 1200×g for 20 min at 4° C. and stored at −20° C. until use.
The PT test was performed using the BCS Coagulation Analyzer (Dade Behring). For assay, 50 ul of plasma containing test compound at concentrations ranging from 0.03 to 100 uM (made from a 100 uM stock containing 1% DMSO in plasma) was combined with 100 ul of Thromboplastin C Plus (Dade Behring). Upon addition of the reagents, absorbance at 405 nm was monitored and time to clot formation is determined (normal range for human plasma is 10.6-12.4 seconds).

[2] = target: human Factor Xa (Homo sapiens, UniProt P00742); assay: In vitro assay for inhibition of Factor Xa (fluorogenic assay, Rhodamine 110 bis-Cbz-glycylglycyl-L-arginine amide substrate); format: biochemical; settings: for Factor Xa inhibitory activity: human Factor Xa 0.0003 U.ml-1, substrate 10 μM, 15 min preincubation, room temperature, pH 7.4; for Ki: Ki=IC50/(1+[Substrate]/Km), i.e. IC50 divided by 1.6, human Factor Xa fluorogenic assay
human Factor Xa, sequence (P00742 235-488 limits assumed): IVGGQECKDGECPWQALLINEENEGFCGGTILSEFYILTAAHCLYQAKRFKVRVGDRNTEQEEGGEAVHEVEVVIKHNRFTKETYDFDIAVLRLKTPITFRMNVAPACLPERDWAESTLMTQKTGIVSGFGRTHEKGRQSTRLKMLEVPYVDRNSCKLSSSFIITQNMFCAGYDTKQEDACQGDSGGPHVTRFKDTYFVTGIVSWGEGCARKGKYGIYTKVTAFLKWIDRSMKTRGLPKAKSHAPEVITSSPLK
human Factor Xa, sequence (P00742 41-179 partner limits assumed): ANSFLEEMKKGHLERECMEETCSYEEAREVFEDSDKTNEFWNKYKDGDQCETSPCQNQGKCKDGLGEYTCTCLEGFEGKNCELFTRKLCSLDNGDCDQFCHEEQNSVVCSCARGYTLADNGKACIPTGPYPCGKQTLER
Description: Compounds of the present invention were tested for their Factor Xa inhibitory activity as determined in vitro by their ability to inhibit human Factor Xa in a fluorogenic assay, using Rhodamine 110, bis-Cbz-glycylglycyl-L-arginine amide as the fluorogenic substrate. Compounds were diluted from a 10 mM stock solution in dimethylsulfoxide at appropriate concentrations. Assay was performed at room temperature using buffer consisting of: 50 mM Tris-HCl, 150 mM NaCl, 5 mM CaCl2, pH 7.4 containing human Factor Xa (final concentration of 0.0003 U.ml-1). Compound and enzyme were preincubated for 15 min prior to addition of the substrate (final concentration of 10 μM). The reaction was stopped after 3 hrs with the addition of H-D-Phe-Pro-Arg-Chloromethylketone. An LJL-Analyst fluorimeter was used to monitor fluorescence with 485 nm excitation/535 nm emission. To obtain IC50 values the data were analysed using ActivityBase® and XLfit®.
Ki=IC50/(1+[Substrate]/Km)
The Ki value for the above assay can be obtained by dividing the IC50 value by 1.6.

| SMILES | activity in prothrombin time (PT) test [1] | Factor Xa inhibitory activity [2] | Ki [2] [µM] |
| --- | --- | --- | --- |
| O=C1[C@@H](NS(=O)(=O)c2ccc3c(Cl)c[nH]c3c2)CCN1c1ccc2c(c1)CNCC2.O=CO [Example 14, 3-Chloro-N-[(3S)-2-oxo-1-(1,2,3,4-tetrahydro-7-isoquinolinyl)-3-pyrrolidinyl]-1H-indole-6-sulfonamide formate] | exhibit activity | exhibit Factor Xa inhibitory activity | – |
| Cl.O=C1[C@@H](NS(=O)(=O)c2ccc(-c3ccc(Cl)s3)s2)CCN1c1ccc2c(c1)CCNC2 [Example 10, 5′-Chloro-N-[(3S)-2-oxo-1-(1,2,3,4-tetrahydro-6-isoquinolinyl)-3-pyrrolidinyl]-2,2′-bithiophene-5-sulfonamide hydrochloride] | exhibit activity | exhibit Factor Xa inhibitory activity | – |
| CC1NCCc2cc(N3CC[C@H](NS(=O)(=O)c4ccc5cc(Cl)ccc5c4)C3=O)ccc21 (stereo partly drawn) [Example 31, 6-Chloro-N-[(3S)-1-(1-methyl-1,2,3,4-tetrahydro-6-isoquinolinyl)-2-oxo-3-pyrrolidinyl]-2-naphthalenesulfonamide hydrochloride] | exhibit activity | exhibit Factor Xa inhibitory activity | < 0.01 |
| O=C1[C@@H](NS(=O)(=O)c2cc3cc(Cl)ccc3s2)CCN1c1ccc2c(c1)CCNC2 [Example 9, 5-Chloro-N-[(3S)-2-oxo-1-(1,2,3,4-tetrahydro-6-isoquinolinyl)-3-pyrrolidinyl]-1-benzothiophene-2-sulfonamide trifluoroacetate] | exhibit activity | exhibit Factor Xa inhibitory activity | – |
| CC1Cc2cc(N3CC[C@H](NS(=O)(=O)/C=C/c4ccc(Cl)s4)C3=O)ccc2CN1 (stereo partly drawn) [Example 33, (E)-2-(5-Chloro-2-thienyl)-N-[(3S)-1-(3-methyl-1,2,3,4-tetrahydro-6-isoquinolinyl)-2-oxo-3-pyrrolidinyl]ethenesulfonamide hydrochloride] | exhibit activity | exhibit Factor Xa inhibitory activity | < 0.01 |
| Cl.O=C1[C@@H](NS(=O)(=O)c2ccc3cc(Cl)ccc3c2)CCN1c1ccc2c(c1)CCNC2 [Example 1, 6-Chloro-N-[(3S)-2-oxo-1-(1,2,3,4-tetrahydro-6-isoquinolinyl)-3-pyrrolidinyl]-2-naphthalenesulfonamide hydrochloride] | exhibit activity | exhibit Factor Xa inhibitory activity | – |
| Cl.O=C1[C@@H](NS(=O)(=O)c2cc3ccc(Cl)cc3s2)CCN1c1cc2c(cc1F)CNCC2 [Example 21, 6-Chloro-N-[(3S)-1-(7-fluoro-1,2,3,4-tetrahydro-6-isoquinolinyl)-2-oxo-3-pyrrolidinyl]-1-benzothiophene-2-sulfonamide hydrochloride] | exhibit activity | exhibit Factor Xa inhibitory activity | < 0.01 |
| Cl.O=C1[C@@H](NS(=O)(=O)/C=C/c2ccc(Cl)s2)CCN1c1cc2c(cc1Cl)CNCC2 [Example 25, (E)-N-[(3S)-1-(7-Chloro-1,2,3,4-tetrahydro-6-isoquinolinyl)-2-oxo-3-pyrrolidinyl]-2-(5-chloro-2-thienyl)ethenesulfonamide hydrochloride] | exhibit activity | exhibit Factor Xa inhibitory activity | – |
| CN1CCc2cc(N3CC[C@H](NS(=O)(=O)c4cc5ccc(Cl)cc5s4)C3=O)ccc2C1.O=CO [Example 8, 6-Chloro-N-[(3S)-1-(2-methyl-1,2,3,4-tetrahydro-6-isoquinolinyl)-2-oxo-3-pyrrolidinyl]-1-benzothiophene-2-sulfonamide formate] | exhibit activity | exhibit Factor Xa inhibitory activity | < 0.01 |
